Measured values taken from patent publication US20250243488A1, “METHODS OF MODULATING PROGRANULIN EXPRESSION USING ANTISENSE OLIGONUCLEOTIDES TARGETING REGULATORY RNAS” (Camp4 Therapeutics Corporation, priority 2022, published 2025).
Oligonucleotides are written 5' to 3', each unit as a sugar letter and its base; * is a phosphorothioate linkage, no mark a phosphodiester; rarer units and linkages stand in square brackets, end groups in braces. Plain capitals give the bases only. e = 2'-O-(2-methoxyethyl) (MOE); l = locked nucleic acid (LNA); [5mC] = 5-methylcytosine

System: GRN mRNA
Test: GRN mRNA qPCR in SK-N-AS cells transfected with ASOs
Type: cell-based, human
Details: SK-N-AS; for hGRN mRNA FC / 120 nM FC (GRN mRNA): 120 nM
Procedure: The best ASOs based on increased GRN mRNA fold-change were selected for further characterization in dose titration studies. Briefly, human neuroblastoma SK-N-AS cells were transfected with 20 to 160 nM of ASOs CO-3423, CO-3431, CO-3463, and CO-3503. A steric non-targeting control ASO (sNTC) was used as a control. Cells were collected for mRNA analysis after 48 hours and GRN mRNA quantified by qPCR. Housekeeping genes for normalization were GAPDH and PPIA, and mRNA fold change (FC) was normalized to sNTC.
36 additional ASOs were designed with different modifications and base walking around selected ASOs. The effect of increasing doses of these ASOs was assessed in the human neuroblastoma cell line SK-N-AS following transfection. Relative GRN mRNA levels in SK-N-AS cells after treatment was assessed 48-hours post-transfection, and data from exemplary ASOs is shown in FIGS. 5A and 5B.
Additional chemical modifications, including LNA, modifications were made to CO-3423. SK-N-AS cells were transfected with increasing concentrations of the LNA/PS modified ASOs and GRN mRNA quantified by qPCR. ASOs including different LNA modifications of CO-3423 had similar efficacy (i.e, similar increased GRN mRNA expression). GRN mRNA was normalized to the average fold-change of cells treated with two steric non-targeting control ASOs (CO-3772 and CO-1589 (sNTC1)).
The effect of ASO length on GRN gene expression modulation was also investigated. SK-N-AS cells were transfected with increasing concentrations of the longer ASOs and GRN mRNA quantified by qPCR. Increasing the length of CO-3423 increased the potency of the ASO, as shown in Table 4. mRNA was normalized to the average fold change of cells treated with two steric non-targeting control ASOs (CO-3772 and CO-1589 (sNTC1)).
To determine whether variations in the PO/PS internucleotide bond linkages impacted the ability of CO-3423 and CO-3431 to modulate gene expression, several modified ASOs based on these parent ASOs were prepared. SK-N-AS cells were transfected with increasing concentrations of the mixed PO/PS bond ASOs described in Tables 5 and 6, and GRN mRNA quantified by qPCR.
GRN mRNA fold-change after treatment with mixed PO/PS bond versions of CO-3423 is shown in Table 5. mRNA was normalized to the average fold change of cells treated with steric nontargeting controls (CO-3772, CO-1589 (sNTC1), and CO-1929 (sNTC3)).
GRN mRNA fold-change after treatment with mixed PO/PS bond versions of CO-3431 is shown in Table 6. mRNA was normalized as described above.
To further assess the effect of additional modifications on the ability of CO-3423 parent ASO to modulate GRN gene expression, additional LNA tiling and PO bond modifications were incorporated to CO-3423. SK-N-AS cells were transfected with increasing concentrations of the modified ASOs and GRN mRNA quantified by qPCR. CO-3423 was used for comparison. GRN mRNA was normalized to the average fold-change of cells treated with a steric non-targeting control ASO, CO-1589 (sNTC1).
To further assess the effect of modifications on the ability of CO-3463 parent ASO to modulate GRN gene expression, ASOs based on this ASOS incorporating additional LNA modifications were prepared and compared to […]. SK-N-AS cells were transfected with increasing concentrations of the ASOs and GRN mRNA quantified by qPCR. GRN mRNA was normalized to the average fold-change of cells treated with a steric non-targeting control ASO, CO-1589 (sNTC1).
68 additional ASOs were designed to target intergenic enhancers (eRNA). 48 hours post-transfection, the cells were collected for GRN mRNA analysis using qPCR. CO-1589, a steric nontargeting control ASO, was used as a control. GRN mRNA was normalized to cells treated with CO-1589.
The best hits from these ASOs were tested in a dose escalation study. Cells were incubated for 48 hours. Subsequently, the cells were collected for mRNA quantification via RT-qPCR. […]

[1] = Table 9, 48 hours post-transfection, normalized to CO-1589
[2] = Table 11, 48 hours, normalized to CO-1589
[3] = Table 12, normalized to CO-1589
[4] = Table 13, normalized to CO-1589
[5] = Table 7, normalized to CO-1589 (sNTC1)
[6] = Table 4, normalized to CO-3772 and CO-1589 (sNTC1)
[7] = Table 10, 48 hours, normalized to CO-1589

CO-4588: ASO designed to target intergenic enhancers (eRNA) (antisense eG*e[5mC]*eT*eG*eG*eT*eT*eT*e[5mC]*eT*e[5mC]*eT*eG*eT*eT*eA*eG*eG*eA*e[5mC])
hGRN mRNA FC [1]: 0.9 FC

CO-6452: ASO designed to target an intragenic enhancer RNA (eRNA) (eT*eG*eG*e[5mC]*eT*eG*e[5mC]*e[5mC]*e[5mC]*e[5mC]*eT*e[5mC]*eA*e[5mC]*eG*eT*eT*eT*eG*e[5mC])
hGRN mRNA FC [2]: 1.4 FC

CO-6440: ASO designed to target an intragenic enhancer RNA (eRNA) (eG*eT*eT*e[5mC]*eA*eT*eG*e[5mC]*eT*eA*e[5mC]*e[5mC]*e[5mC]*e[5mC]*e[5mC]*eT*eA*eG*eT*eG)
hGRN mRNA FC [2]: 1.0 FC

CO-6382: ASO based on parent ASO CO-3462 (antisense e[5mC]*eT*eA*eT*eG*eA*eT*e[5mC]*eA*eG*e[5mC]*eT*eT*eG*eG*eG*e[5mC]*eG*eA*e[5mC])
30 nM FC (GRN mRNA) [3]: 0.8 FC | 60 nM FC (GRN mRNA) [3]: 0.8 FC | 120 nM FC (GRN mRNA) [3]: 0.9 FC

CO-6422: ASO based on parent ASOs CO-4363 and CO-4364 (eG*eG*eA*l[5mC]*eT*eT*eG*lG*eG*eA*eG*lT*eG*eG*eT*lG*eA*e[5mC]*eT*lG*eA*eA*e[5mC])
30 nM FC (GRN mRNA) [4]: 1.9 FC | 60 nM FC (GRN mRNA) [4]: 2.0 FC | 120 nM FC (GRN mRNA) [4]: 2.1 FC

CO-5266: CO-3423 with additional LNA tiling and PO bond modifications (antisense GGACTTGGGAGTGGTGACTG; 2'-MOE, mixed PS/PO, 5-methylcytosine; listed as RNA; modified_base 1..7: mod_base = OTHER; note = Phosphorothioate linkage; modified_base 17..20: mod_base = OTHER; modified_base 1..20: mod_base = OTHER; note = 2'-O-(2-methoxyethyl) ribonucleotide; modified_base 4)
7.5 nM FC (GRN mRNA) [5]: 1.0 FC | 13 nM FC (GRN mRNA) (Table 7, 13 nM, normalized to CO-1589 (sNTC1)): 1.0 FC | 30 nM FC (GRN mRNA) [5]: 1.2 FC | 60 nM FC (GRN mRNA) [5]: 1.7 FC | 120 nM FC (GRN mRNA) [5]: 2.0 FC | 150 nM FC (GRN mRNA) (Table 7, 150 nM, normalized to CO-1589 (sNTC1)): 2.2 FC

CO-6442: ASO designed to target an intragenic enhancer RNA (eRNA) (e[5mC]*eT*eG*eG*eG*eA*eG*e[5mC]*e[5mC]*eT*eG*eG*e[5mC]*eT*eG*eA*eT*eG*e[5mC]*eA)
hGRN mRNA FC [2]: 1.2 FC

CO-4124: GRN paRNA-targeting ASO; longer ASO related to CO-3423 (antisense eG*eA*e[5mC]*eT*eT*eG*eG*eG*eA*eG*eT*eG*eG*eT*eG*eA*e[5mC]*eT*eG*eA)
30 nM FC (GRN mRNA) [6]: 1.2 FC | 60 nM FC (GRN mRNA) [6]: 1.7 FC | 120 nM FC (GRN mRNA) [6]: 1.7 FC | hGRN mRNA FC [1]: 1.3 FC | 3.75 nM FC (GRN mRNA) (Table 10, 3.75 nM, 48 hours, normalized to CO-1589): 1.0 FC | 7.5 nM FC (GRN mRNA) [7]: 1.0 FC | 15 nM FC (GRN mRNA) (Table 10, 15 nM, 48 hours, normalized to CO-1589): 1.0 FC | 30 nM FC (GRN mRNA) [7]: 1.2 FC | 60 nM FC (GRN mRNA) [7]: 1.4 FC | 120 nM FC (GRN mRNA) [7]: 1.9 FC

CO-6437: ASO designed to target an intragenic enhancer RNA (eRNA) (eG*eA*e[5mC]*eA*eA*eA*eG*eA*e[5mC]*e[5mC]*e[5mC]*eA*e[5mC]*e[5mC]*e[5mC]*e[5mC]*eT*eG*eT*e[5mC])
hGRN mRNA FC [2]: 1.1 FC

CO-4595: ASO designed to target intergenic enhancers (eRNA) (antisense eA*eG*e[5mC]*e[5mC]*e[5mC]*eG*eA*e[5mC]*e[5mC]*eT*eT*eG*eA*e[5mC]*eT*eG*eA*eT*eA*eG)
hGRN mRNA FC [1]: 1.0 FC

CO-4643: ASO designed to target intergenic enhancers (eRNA) (antisense e[5mC]*eG*eG*e[5mC]*eA*eT*eT*e[5mC]*e[5mC]*e[5mC]*eT*eG*eA*e[5mC]*e[5mC]*eT*eA*eT*e[5mC]*e[5mC])
hGRN mRNA FC [1]: 0.9 FC

CO-6446: ASO designed to target an intragenic enhancer RNA (eRNA) (eT*eG*e[5mC]*eT*eG*eT*eG*eA*eG*e[5mC]*eT*eG*e[5mC]*e[5mC]*e[5mC]*eA*eG*eT*eG*eG)
hGRN mRNA FC [2]: 1.1 FC

CO-6450: ASO designed to target an intragenic enhancer RNA (eRNA) (e[5mC]*eA*eG*eT*eG*eG*e[5mC]*e[5mC]*eT*eT*eG*eT*e[5mC]*e[5mC]*eA*eG*e[5mC]*eT*e[5mC]*eG)
hGRN mRNA FC [2]: 0.9 FC

CO-4610: ASO designed to target intergenic enhancers (eRNA) (antisense eG*eG*eA*e[5mC]*eA*eT*eG*e[5mC]*eT*eG*eG*eA*eA*eA*eG*eT*e[5mC]*eT*eT*eA)
hGRN mRNA FC [1]: 1.2 FC

CO-4616: ASO designed to target intergenic enhancers (eRNA) (antisense eA*eA*eG*eA*eA*eG*eG*e[5mC]*e[5mC]*eA*eA*eG*e[5mC]*eT*eG*eG*eT*eA*e[5mC]*e[5mC])
hGRN mRNA FC [1]: 1.2 FC

CO-6441: ASO designed to target an intragenic enhancer RNA (eRNA) (eG*eG*e[5mC]*eT*eG*eA*eT*eG*e[5mC]*eA*eG*eG*eG*eT*eT*e[5mC]*eA*eT*eG*e[5mC])
hGRN mRNA FC [2]: 1.4 FC

CO-4597: ASO designed to target intergenic enhancers (eRNA) (antisense eA*eG*eG*e[5mC]*eG*eT*e[5mC]*e[5mC]*eT*eT*eT*e[5mC]*e[5mC]*eA*eT*eT*e[5mC]*e[5mC]*e[5mC]*eT)
hGRN mRNA FC [1]: 0.9 FC

CO-4608: ASO designed to target intergenic enhancers (eRNA) (antisense eT*eA*eG*eA*e[5mC]*eA*e[5mC]*eT*eT*e[5mC]*e[5mC]*eA*eG*e[5mC]*e[5mC]*e[5mC]*eA*e[5mC]*e[5mC]*eT)
hGRN mRNA FC [1]: 1.1 FC

CO-6512: ASO based on parent ASO CO-3462 (antisense eT*eA*eGeGeAeGeA*eA*eT*e[5mC]*eG*e[5mC]eT*eT*eT*eG*eG*eG*eA*eG)
30 nM FC (GRN mRNA) [3]: 1.3 FC | 60 nM FC (GRN mRNA) [3]: 1.8 FC | 120 nM FC (GRN mRNA) [3]: 1.3 FC
